Source: PubChem BioAssay AID212 (DTP/NCI, 2004)
Where “and” joins values, the source holds several entries; their conditions need not be identical. Equal entries are not always repeated. Results filed as inconclusive are left out.

Tested on: BDF1 mice, colon carcinoma 38 sc, T/C %
Assay: NCI In Vivo Anticancer Drug Screen. Data for tumor model Colon Carcinoma 38 (subcutaneous) in B6D2F1 (BDF1) mice
Method: The antitumor activity of compounds was measured in mice bearing transplantable tumors. Survival or tumor size were measured and the results are expressed as the measurement made in the treated group (T) divided by the measurement made in the vehicle treated control group (C). The tumor model used in this assay is Colon Carcinoma 38 (subcutaneous) in B6D2F1 (BDF1) mice

[1] = endpoint: median tumor weight (est.), dose: 12.5 mg/kg/injection, schedule: Q07DX002 (ip), vehicle: water, higher = larger tumour
[2] = endpoint: median tumor weight (est.), dose: 25.0 mg/kg/injection, schedule: Q07DX002 (ip), vehicle: water, higher = larger tumour
[3] = endpoint: median tumor weight (est.), dose: 50.0 mg/kg/injection, schedule: Q07DX002 (ip), vehicle: water, higher = larger tumour
[4] = endpoint: median tumor weight (est.), dose: 1.56 mg/kg/injection, schedule: Q07DX002 (ip), vehicle: saline, higher = larger tumour
[5] = endpoint: median tumor weight (est.), dose: 3.12 mg/kg/injection, schedule: Q07DX002 (ip), vehicle: saline, higher = larger tumour
[6] = endpoint: median tumor weight (est.), dose: 6.25 mg/kg/injection, schedule: Q07DX002 (ip), vehicle: saline, higher = larger tumour
[7] = endpoint: median tumor weight (est.), dose: 12.5 mg/kg/injection, schedule: Q07DX002 (ip), vehicle: saline, higher = larger tumour
[8] = endpoint: median tumor weight (est.), dose: 50.0 mg/kg/injection, schedule: Q07DX002 (ip), vehicle: saline, higher = larger tumour

COc1cc(NCc2ccc3nc(N)nc(N)c3c2C)cc(OC)c1OC
T/C (endpoint: median survival time, dose: 5.2 mg/kg/injection, schedule: Q04HX021 (ip), vehicle: sodium bicarbonate, higher = longer survival): 183 % of control | T/C (endpoint: median survival time, dose: 5.9 mg/kg/injection, schedule: Q06HX014 (ip), vehicle: sodium bicarbonate, higher = longer survival): 120 % of control | T/C (endpoint: median survival time, dose: 8.4 mg/kg/injection, schedule: Q04HX021 (ip), vehicle: sodium bicarbonate, higher = longer survival): 194 % of control | T/C (endpoint: median survival time, dose: 8.8 mg/kg/injection, schedule: Q06HX012 (oral), vehicle: sodium bicarbonate, higher = longer survival): 116 % of control | T/C (endpoint: median survival time, dose: 8.8 mg/kg/injection, schedule: Q06HX014 (ip), vehicle: sodium bicarbonate, higher = longer survival): 175 % of control | T/C (endpoint: median survival time, dose: 20.0 mg/kg/injection, schedule: Q06HX012 (oral), vehicle: sodium bicarbonate, higher = longer survival): 177 % of control | T/C (endpoint: median survival time, dose: 67.0 mg/kg/injection, schedule: Q07DX002 (ip), vehicle: sodium bicarbonate, higher = longer survival): 157 % of control | T/C (endpoint: median tumor weight (est.), dose: 1.88 mg/kg/injection, schedule: Q07DX002 (ip), vehicle: sodium bicarbonate, higher = larger tumour): 152 % of control | T/C [1]: 121 % of control | T/C [2]: 109 % of control | T/C [3]: 109 % of control | T/C (endpoint: median tumor weight (est.), dose: 53.0 mg/kg/injection, schedule: Q07DX002 (ip), vehicle: water, higher = larger tumour): 85 % of control | T/C (endpoint: median tumor weight (est.), dose: 66.0 mg/kg/injection, schedule: Q07DX002 (ip), vehicle: water, higher = larger tumour): 90 % of control | T/C (endpoint: median tumor weight (est.), dose: 70.0 mg/kg/injection, schedule: Q07DX002 (ip), vehicle: water, higher = larger tumour): 120 % of control | T/C (endpoint: median tumor weight (est.), dose: 80.0 mg/kg/injection, schedule: Q07DX002 (ip), vehicle: water, higher = larger tumour): 82 % of control | T/C (endpoint: median tumor weight (est.), dose: 99.0 mg/kg/injection, schedule: Q07DX002 (ip), vehicle: water, higher = larger tumour): 87 % of control | T/C (endpoint: median tumor weight (est.), dose: 100.0 mg/kg/injection, schedule: Q07DX002 (ip), vehicle: water, higher = larger tumour): 217 % of control | T/C (endpoint: median tumor weight (est.), dose: 105.0 mg/kg/injection, schedule: Q07DX002 (ip), vehicle: water, higher = larger tumour): 82 % of control | T/C (endpoint: median tumor weight (est.), dose: 120.0 mg/kg/injection, schedule: Q07DX002 (ip), vehicle: sodium bicarbonate, higher = larger tumour): 4 % of control | T/C (endpoint: median tumor weight (est.), dose: 120.0 mg/kg/injection, schedule: Q07DX002 (ip), vehicle: water, higher = larger tumour): 83 % of control

C(CC1CO1)C1CO1 (stereo unspecified)
T/C (endpoint: median tumor weight (est.), dose: 5.0 mg/kg/injection, schedule: Q07DX002 (ip), vehicle: Klucel (hydroxypropylcellulose) (HPC), higher = larger tumour): 172 % of control and 185 % of control | T/C (endpoint: median tumor weight (est.), dose: 10.0 mg/kg/injection, schedule: Q07DX002 (ip), vehicle: Klucel (hydroxypropylcellulose) (HPC), higher = larger tumour): 106 % of control | T/C (endpoint: median tumor weight (est.), dose: 40.0 mg/kg/injection, schedule: Q07DX002 (ip), vehicle: Klucel (hydroxypropylcellulose) (HPC), higher = larger tumour): 245 % of control | T/C (endpoint: median tumor weight (est.), dose: 80.0 mg/kg/injection, schedule: Q07DX002 (ip), vehicle: Klucel (hydroxypropylcellulose) (HPC), higher = larger tumour): 115 % of control | T/C (endpoint: median tumor weight (est.), dose: 160.0 mg/kg/injection, schedule: Q07DX002 (ip), vehicle: Klucel (hydroxypropylcellulose) (HPC), higher = larger tumour): 81 % of control

CC(/C=C/c1ccccc1)=Nc1ccccc1
T/C (endpoint: median tumor weight (est.), dose: 25.0 mg/kg/injection, schedule: Q07DX002 (ip), vehicle: saline with Tween-80, higher = larger tumour): 40 % of control | T/C (endpoint: median tumor weight (est.), dose: 50.0 mg/kg/injection, schedule: Q07DX002 (ip), vehicle: saline with Tween-80, higher = larger tumour): 110 % of control | T/C (endpoint: median tumor weight (est.), dose: 100.0 mg/kg/injection, schedule: Q07DX002 (ip), vehicle: saline with Tween-80, higher = larger tumour): 92 % of control | T/C (endpoint: median tumor weight (est.), dose: 400.0 mg/kg/injection, schedule: Q07DX002 (ip), vehicle: saline with Tween-80, higher = larger tumour): 185 % of control

COP12(OCCO1)SC(C(F)(F)F)=C(C(F)(F)F)S2
T/C (endpoint: median tumor weight (est.), dose: 0.75 mg/kg/injection, schedule: Q07DX002 (ip), vehicle: saline with Tween-80, higher = larger tumour): 81 % of control | T/C (endpoint: median tumor weight (est.), dose: 1.5 mg/kg/injection, schedule: Q07DX002 (ip), vehicle: saline with Tween-80, higher = larger tumour): 92 % of control | T/C (endpoint: median tumor weight (est.), dose: 3.0 mg/kg/injection, schedule: Q07DX002 (ip), vehicle: saline with Tween-80, higher = larger tumour): 84 % of control | T/C (endpoint: median tumor weight (est.), dose: 6.0 mg/kg/injection, schedule: Q07DX002 (ip), vehicle: saline with Tween-80, higher = larger tumour): 83 % of control | T/C (endpoint: median tumor weight (est.), dose: 12.0 mg/kg/injection, schedule: Q07DX002 (ip), vehicle: saline with Tween-80, higher = larger tumour): 75 % of control

OCCN1CCN(CC/C=C2/c3ccccc3Sc3ccc(C(F)(F)F)cc32)CC1
T/C [4]: 110 % of control | T/C [5]: 121 % of control | T/C [6]: 100 % of control | T/C [7]: 95 % of control | T/C (endpoint: median tumor weight (est.), dose: 25.0 mg/kg/injection, schedule: Q07DX002 (ip), vehicle: saline, higher = larger tumour): 120 % of control | T/C [8]: 68 % of control

CCCCN(CCCC)C(Cl)=Nc1ccccc1
T/C (endpoint: median tumor weight (est.), dose: 12.5 mg/kg/injection, schedule: Q07DX002 (ip), vehicle: Klucel (hydroxypropylcellulose) (HPC), higher = larger tumour): 111 % of control and 118 % of control | T/C (endpoint: median tumor weight (est.), dose: 25.0 mg/kg/injection, schedule: Q07DX002 (ip), vehicle: Klucel (hydroxypropylcellulose) (HPC), higher = larger tumour): 93 % of control and 94 % of control | T/C (endpoint: median tumor weight (est.), dose: 50.0 mg/kg/injection, schedule: Q07DX002 (ip), vehicle: Klucel (hydroxypropylcellulose) (HPC), higher = larger tumour): 68 % of control and 89 % of control

COC(C(=O)C(O)C(C)O)C1Cc2cc3cc(OC4CC(OC(C)=O)C(OC5CC(O)C(OC)C(C)O5)C(C)O4)cc(O)c3c(O)c2C(=O)C1OC1CC(OC2CC(OC3CC(C)(O)C(OC(=O)C(C)C)C(C)O3)C(O)C(C)O2)C(O)C(C)O1 (stereo unspecified)
T/C (endpoint: median tumor weight (est.), dose: 0.12 mg/kg/injection, schedule: Q07DX002 (ip), vehicle: saline with Tween-80, higher = larger tumour): 113 % of control | T/C (endpoint: median tumor weight (est.), dose: 0.25 mg/kg/injection, schedule: Q07DX002 (ip), vehicle: saline, higher = larger tumour): 81 % of control | T/C (endpoint: median tumor weight (est.), dose: 0.5 mg/kg/injection, schedule: Q07DX002 (ip), vehicle: saline with Tween-80, higher = larger tumour): 113 % of control | T/C (endpoint: median tumor weight (est.), dose: 0.5 mg/kg/injection, schedule: Q07DX002 (ip), vehicle: saline, higher = larger tumour): 78 % of control | T/C (endpoint: median tumor weight (est.), dose: 1.0 mg/kg/injection, schedule: Q07DX002 (ip), vehicle: saline with Tween-80, higher = larger tumour): 59 % of control | T/C (endpoint: median tumor weight (est.), dose: 1.0 mg/kg/injection, schedule: Q07DX002 (ip), vehicle: saline, higher = larger tumour): 89 % of control | T/C (endpoint: median tumor weight (est.), dose: 2.0 mg/kg/injection, schedule: Q07DX002 (ip), vehicle: saline with Tween-80, higher = larger tumour): 55 % of control | T/C (endpoint: median tumor weight (est.), dose: 2.0 mg/kg/injection, schedule: Q07DX002 (ip), vehicle: saline, higher = larger tumour): 124 % of control | T/C (endpoint: median tumor weight (est.), dose: 4.0 mg/kg/injection, schedule: Q07DX002 (ip), vehicle: saline with Tween-80, higher = larger tumour): 48 % of control | T/C (endpoint: median tumor weight (est.), dose: 4.0 mg/kg/injection, schedule: Q07DX002 (ip), vehicle: saline, higher = larger tumour): 92 % of control

S=P(N1CC1)(N1CC1)N1CC1
T/C (endpoint: median tumor weight (est.), dose: 1.5 mg/kg/injection, schedule: Q07DX003 (ip), vehicle: saline, higher = larger tumour): 99 % of control | T/C (endpoint: median tumor weight (est.), dose: 3.0 mg/kg/injection, schedule: Q07DX003 (ip), vehicle: saline, higher = larger tumour): 50 % of control | T/C (endpoint: median tumor weight (est.), dose: 6.0 mg/kg/injection, schedule: Q07DX003 (ip), vehicle: saline, higher = larger tumour): 55 % of control

COc1ccc(-c2csc(=[N+]3CCCCC3)s2)cc1
T/C (endpoint: median tumor weight (est.), dose: 3.13 mg/kg/injection, schedule: Q07DX002 (ip), vehicle: water, higher = larger tumour): 107 % of control | T/C (endpoint: median tumor weight (est.), dose: 6.25 mg/kg/injection, schedule: Q07DX002 (ip), vehicle: water, higher = larger tumour): 105 % of control | T/C [1]: 116 % of control | T/C [2]: 123 % of control | T/C [3]: 121 % of control

Cc1cc(O)c(O)c(Oc2cc(C)cc(O)c2O)c1
T/C (endpoint: median tumor weight (est.), dose: 0.35 mg/kg/injection, schedule: Q07DX002 (ip), vehicle: saline, higher = larger tumour): 96 % of control | T/C (endpoint: median tumor weight (est.), dose: 0.7 mg/kg/injection, schedule: Q07DX002 (ip), vehicle: saline, higher = larger tumour): 78 % of control | T/C (endpoint: median tumor weight (est.), dose: 1.4 mg/kg/injection, schedule: Q07DX002 (ip), vehicle: saline, higher = larger tumour): 77 % of control

CONc1ccn(C2OC(CO)C(O)C2O)c(=O)n1 (stereo unspecified)
T/C [8]: 92 % of control and 101 % of control | T/C (endpoint: median tumor weight (est.), dose: 100.0 mg/kg/injection, schedule: Q07DX002 (ip), vehicle: saline, higher = larger tumour): 113 % of control | T/C (endpoint: median tumor weight (est.), dose: 200.0 mg/kg/injection, schedule: Q07DX002 (ip), vehicle: saline, higher = larger tumour): 124 % of control | T/C (endpoint: median tumor weight (est.), dose: 400.0 mg/kg/injection, schedule: Q07DX002 (ip), vehicle: saline, higher = larger tumour): 91 % of control

C[C@H](N)C(=O)N[C@@H]1[C@H]2C(=C(O)C[C@@H](O)[C@@H]2O)C(=O)O[C@@H]1C
T/C (endpoint: median tumor weight (est.), dose: 150.0 mg/kg/injection, schedule: Q07DX002 (ip), vehicle: saline, higher = larger tumour): 65 % of control | T/C (endpoint: median tumor weight (est.), dose: 300.0 mg/kg/injection, schedule: Q07DX002 (ip), vehicle: saline, higher = larger tumour): 96 % of control | T/C (endpoint: median tumor weight (est.), dose: 1200.0 mg/kg/injection, schedule: Q07DX002 (ip), vehicle: saline, higher = larger tumour): 90 % of control | T/C (endpoint: median tumor weight (est.), dose: 2400.0 mg/kg/injection, schedule: Q07DX002 (ip), vehicle: saline, higher = larger tumour): 96 % of control

N=C1C=C[C@]2(O)C[C@H](Cl)CN12
T/C [4]: 73 % of control | T/C [5]: 79 % of control | T/C [6]: 71 % of control | T/C [7]: 88 % of control
